Measurements published in ChEMBL document CHEMBL2375344, “Identification of pyrrolo[2,3-g]indazoles as new Pim kinase inhibitors” (Bioorg Med Chem Lett, 2013).

Assays:
[1] = target: T1, Serine/threonine-protein kinase pim-3 (Homo sapiens, UniProt Q86V86); test: Inhibition of human full length Pim-3 using RSRHSSYPAGT as substrate assessed as residual activity at 1 uM after 30 mins in presence of [gamma-33P]ATP; values are per cent of control
[2] = target: Serine/threonine-protein kinase pim-2 (Homo sapiens) (UniProt Q9P1W9); test: Inhibition of human full length Pim-2 using RSRHSSYPAGT as substrate assessed as residual activity at 1 uM after 30 mins in presence of [gamma-33P]ATP; values are per cent of control
[3] = target: T2, Serine/threonine-protein kinase pim-1 (Homo sapiens, UniProt P11309); test: Inhibition of human full length Pim-1 using RSRHSSYPAGT as substrate assessed as residual activity at 1 uM after 30 mins in presence of [gamma-33P]ATP; values are per cent of control
Target sequence in this assay (P11309 whole entry, looked up): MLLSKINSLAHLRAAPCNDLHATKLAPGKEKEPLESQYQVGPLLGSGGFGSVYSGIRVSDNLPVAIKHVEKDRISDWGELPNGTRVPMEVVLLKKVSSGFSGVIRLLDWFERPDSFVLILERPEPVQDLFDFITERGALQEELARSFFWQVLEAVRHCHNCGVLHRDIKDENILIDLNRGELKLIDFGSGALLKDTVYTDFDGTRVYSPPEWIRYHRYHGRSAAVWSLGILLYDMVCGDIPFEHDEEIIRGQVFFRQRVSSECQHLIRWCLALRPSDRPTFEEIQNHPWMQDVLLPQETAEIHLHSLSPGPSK

[4] = target: T1, Serine/threonine-protein kinase pim-3; test: Inhibition of human full length Pim-3 using RSRHSSYPAGT as substrate assessed as residual activity at 10 uM after 30 mins in presence of [gamma-33P]ATP; values are per cent of control
[5] = target: Serine/threonine-protein kinase pim-2 (Homo sapiens) (UniProt Q9P1W9); test: Inhibition of human full length Pim-2 using RSRHSSYPAGT as substrate assessed as residual activity at 10 uM after 30 mins in presence of [gamma-33P]ATP; values are per cent of control
[6] = target: T2, Serine/threonine-protein kinase pim-1; test: Inhibition of human full length Pim-1 using RSRHSSYPAGT as substrate assessed as residual activity at 10 uM after 30 mins in presence of [gamma-33P]ATP; values are per cent of control
Target sequence in this assay (P11309 whole entry, looked up): as the sequence (P11309 whole entry, looked up) above

[7] = target: T1, Serine/threonine-protein kinase pim-3; test: Inhibition of human full length Pim-3 using RSRHSSYPAGT as substrate assessed as residual activity after 30 mins in presence of [gamma-33P]ATP
[8] = target: T2, Serine/threonine-protein kinase pim-1; test: Inhibition of human full length Pim-1 using RSRHSSYPAGT as substrate assessed as residual activity after 30 mins in presence of [gamma-33P]ATP
Target sequence in this assay (P11309 whole entry): as the sequence (P11309 whole entry, looked up) above

Chain of Serine/threonine-protein kinase pim-2 (Homo sapiens) (Q9P1W9 whole entry, looked up): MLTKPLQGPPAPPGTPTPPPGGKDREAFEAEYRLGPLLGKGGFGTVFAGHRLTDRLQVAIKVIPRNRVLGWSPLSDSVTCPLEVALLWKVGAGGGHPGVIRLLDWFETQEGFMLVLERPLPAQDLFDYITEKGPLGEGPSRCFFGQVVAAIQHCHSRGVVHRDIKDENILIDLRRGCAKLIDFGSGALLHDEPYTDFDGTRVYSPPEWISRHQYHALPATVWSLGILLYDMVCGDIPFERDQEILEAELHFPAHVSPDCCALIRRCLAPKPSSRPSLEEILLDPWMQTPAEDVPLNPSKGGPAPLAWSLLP

residual activity [1] [%] | residual activity [2] [%] | residual activity [3] [%] | residual activity [4] [%] | residual activity [5] [%] | residual activity [6] [%] | IC50 [7] [nM] | IC50 [8] [nM] | Compound
72 | 91 | 92 | 23 | 75 | 44 | – | – | CCc1[nH]c2c(N)cc3cn[nH]c3c2c1-c1ccccc1
20 | 99 | 63 | 4 | 104 | 17 | 33 | 460 | Nc1cc2cn[nH]c2c2cc[nH]c12
50 | 113 | 110 | 24 | 85 | 39 | 546 | – | CCCc1c(C(=O)OC)[nH]c2c([N+](=O)[O-])cc3cn[nH]c3c12
93 | 102 | 93 | 26 | 97 | 61 | – | – | CCOC(=O)c1[nH]c2c(N)cc3cn[nH]c3c2c1C
72 | 105 | 78 | 47 | 97 | 72 | – | – | CCOC(=O)c1[nH]c2c([N+](=O)[O-])cc3cn[nH]c3c2c1C
24 | 66 | 78 | 6 | 27 | 54 | 260 | – | CCCc1c[nH]c2c([N+](=O)[O-])cc3cn[nH]c3c12
77 | 99 | 68 | 26 | 61 | 26 | – | – | Cc1c[nH]c2c([N+](=O)[O-])cc3cn[nH]c3c12
71 | 109 | 82 | 19 | 63 | 26 | – | – | CCOCc1c[nH]c2c([N+](=O)[O-])cc3cn[nH]c3c12

More lines, now with the values behind:

Compound | residual activity [1] [%] | residual activity [2] [%] | residual activity [3] [%] | residual activity [4] [%] | residual activity [5] [%] | residual activity [6] [%] | IC50 [7] [nM] | IC50 [8] [nM]
C[Si](C)(C)c1cc2c([nH]1)c(N)cc1cn[nH]c12 | 67 | 93 | 94 | 24 | 111 | 52 | – | –
CCOC(=O)c1[nH]c2c([N+](=O)[O-])cc3cn[nH]c3c2c1-c1ccccc1 | 73 | 92 | 86 | 90 | 113 | 55 | – | –
CCc1[nH]c2c([N+](=O)[O-])cc3cn[nH]c3c2c1-c1ccccc1 | 31 | 77 | 43 | 36 | 84 | 51 | 119 | 230
O=[N+]([O-])c1cc2cn[nH]c2c2c(-c3ccccc3)c[nH]c12 | 38 | 82 | 52 | 21 | 70 | 28 | 530 | 1000
Cc1c[nH]c2c(N)cc3cn[nH]c3c12 | 65 | 105 | 91 | 17 | 88 | 63 | – | –
O=[N+]([O-])c1cc2cn[nH]c2c2cc[nH]c12 | 78 | 92 | 102 | 18 | 80 | 30 | – | –
O=Cc1c[nH]c2c([N+](=O)[O-])cc3cn[nH]c3c12 | 76 | 117 | 97 | 25 | 70 | 27 | – | –
CCCc1c[nH]c2c(N)cc3cn[nH]c3c12 | 79 | 90 | 104 | 39 | 93 | 57 | – | –
C[Si](C)(C)c1cc2c([nH]1)c([N+](=O)[O-])cc1cn[nH]c12 | 51 | 103 | 63 | 9 | 64 | 17 | 470 | –
Nc1cc2cn[nH]c2c2c(-c3ccccc3)c[nH]c12 | 68 | 103 | 111 | 26 | 92 | 51 | – | –
CCCc1c(C(=O)OC)[nH]c2c(N)cc3cn[nH]c3c12 | 82 | 105 | 71 | 12 | 78 | 26 | – | –
CCOC(=O)c1[nH]c2c(N)cc3cn[nH]c3c2c1-c1ccccc1 | 72 | 101 | 74 | 20 | 74 | 29 | – | –
